Test results from patent US7749546B2, “Composition for effectively suppressing the growth of prostate cancer cell, suppressing the prostatic hyperplasia and its preparation method” (Golden Biotechnology Corp., priority 2004, dated 2010).

System: human prostate cancer cell lines—LNCaP cells
Experiment: In vitro mode adjunctive treatment activity assay with Taxol (MTT cell survival)
Type: cell-based
Conditions: 2 nM Taxol alone
Method: Utilize in vitro filter mode for human prostate cancer cell lines—LNCaP cells. Where human prostate cancer cell lines—LNCaP cells is being cultured in the culture medium which is supplemented by fetalbovine serum for 24 hours, and process cells by Taxol for 72 hours, and then change the culture medium so as to culture it in a new culture medium by adding assay sample for 72 hours, afterwards evaluate the cell survival rate by MIT colorimetric analysis method.
※ The assay analysis of the compositions in accordance with the present invention in effect for suppressing the growth of human prostate cancer cells, wherein it is necessary to compute the cell survival rate for cells in each well of 96-well microplate, afterwards evaluate the cancer cells survival rate by MIT colorimetric analysis method.
※ MTT colorimetric analysis method: MTT is a kind of tertrazolium salt, with a full name of 3-[4,5-Dimenthylthialzol-2-yl]2, 5-diphenyltetrazoliumbromide, which is the yellow dye, capable to be absorbed by live cells and also be reduced to blue color formazan by succinate-tetrazoliumreductase in mitochondrion, which is commonly used for filtering the affection for matters to the growth and proliferation of cells.

CC(=O)O[C@H]1C(=O)[C@@]2(C)[C@H]([C@H](OC(=O)c3ccccc3)[C@]3(O)C[C@H](OC(=O)[C@H](O)[C@@H](NC(=O)c4ccccc4)c4ccccc4)C(C)=C1C3(C)C)[C@]1(OC(C)=O)CO[C@@H]1C[C@@H]2O [Taxol]
cell survival rate for human prostate cancer cells: 56.4%
